From BindingDB's records for doi:10.1074/jbc.M113.457119 (Institut National De Recherche Agronomique (Inra)-Vetagro …, 2013)
Substitutions are numbered along the chain they refer to.

Columns and labels:
Experiment in all cases: VKOR Activity Assay
Conditions in all cases: pH 7.4; 37 °C
[1] = target: T1, Vitamin K epoxide reductase complex subunit 1 (Rattus norvegicus, UniProt Q6TEK4)
T1 sequence (Q6TEK4 whole entry): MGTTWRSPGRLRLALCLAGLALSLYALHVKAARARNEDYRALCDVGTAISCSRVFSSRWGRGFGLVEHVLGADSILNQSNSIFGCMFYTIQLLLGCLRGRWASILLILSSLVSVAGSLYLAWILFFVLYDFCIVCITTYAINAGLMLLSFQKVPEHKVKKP
Description: (§1) Briefly, standard reactions were performed in 200 mM Hepes buffer, pH 7.4, containing 150 mM KCl, 1 mM dithiothreitol, 0.25 to 2 g liter-1 of total proteins containing membrane VKORC1. The reaction was started by the addition of vit K1>O solution in 1% Triton X-100 and incubated at 37 °C for 30 min. […] After incubation at 37 °C for 30 min, the reaction was stopped by adding 4 ml of iced 1:1 isopropyl alcohol/hexane solution. After centrifugation at 5000 x g for 10 min, the hexane layer was removed and driedunder nitrogen. The dry residue was immediately dissolved in 0.2 ml of isopropyl alcohol, and the reaction product was analyzed by liquid chromatography-mass spectrometry.

[2] = target: T2, Vitamin K epoxide reductase complex subunit 1-like protein 1 (Homo sapiens, UniProt Q8N0U8)
T2 sequence (Q8N0U8 whole entry): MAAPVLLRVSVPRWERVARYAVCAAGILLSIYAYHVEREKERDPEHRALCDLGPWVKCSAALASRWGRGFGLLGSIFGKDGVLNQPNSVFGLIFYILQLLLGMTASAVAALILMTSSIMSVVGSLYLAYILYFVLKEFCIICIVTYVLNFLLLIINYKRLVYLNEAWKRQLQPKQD
Description: as §1

[3] = target: T3, Vitamin K epoxide reductase complex subunit 1-like protein 1 (Rattus norvegicus, UniProt Q6TEK3)
T3 sequence (Q6TEK3 whole entry): T2 sequence (Q8N0U8 whole entry) with I112V, M119V, I143V, V144T, Q175E
Description: as §1

Q: What does the source list for `CC(=O)C[C@H](c1ccccc1)c1c(O)c2ccccc2oc1=O` [2-hydroxy-3-(3-oxo-1-phenylbutyl)-4H-chromen-4-one]?
A: Ki [1]: 600 nM; Ki [2]: 52 µM; Ki [3]: 32.6 µM
